Source: US6951866B2, “Bicyclic pyrimidine compounds and therapeutic use thereof” (Sumitomo Pharmaceuticals Company, Limited, priority 1998, dated 2005)
Where two headings read alike, the source gives them in different places.

Key:
Type in all cases: cell-based
IL-4 = experiment: Cytokine production (IL-4) from KLH-stimulated mouse lymph node cells, ELISA; conditions: 4 days; for IC50: Mus musculus, 96 h, lymph node cells of KLH-sensitized BALB/c mice, KLH 0.1 mg/ml, read-out: IL-4 inhibition activity IC50; for production of IL-4: Test 3, KLH-stimulated mouse lymph node cells
Experimental: (§1) Activity on Cytokines Production from Mouse Lymph Node Cells by Compounds of Working Examples
(§2) BALB/c mice were purchased from Japan Charlse River (Yokohama) and 8 weeks female mice were used.
(§3) D-MEM (High Glucose) medium (Nikken Biomedical Research Lab. (Kyoto), Code No. CM4402) supplemented with 20% heat-inactivated (56° C., 30 min.) fetal bovine serum (Characterized, Code No. A-1115-L, HyClone Lab., Logan, Utah), 50 μM 2-mercaptoethanol (Sigma, St. Louis, Mo., Code No. M-6250), 100 unit/ml penicillin and 100 μg/ml streptomycin (Penicillin-Streptomycin, Bibco-BRL, Code No. 15140-122) were used for the assay.
Each test compound dissolved in DMSO (Nacalai Tesque (Kyoto) code No. 11J) at a concentration of 100 mM was diluted to final concentration with the medium.
KLH (0.2 mg) was subcutaneously administered to mouse foot with Freund's complete adjuvant (Difco Lab., Detroit, Mich., Code No. 3113-60-5). Eight days later popliteal lymph node was picked up and its cell suspension was prepared.
(§4) KLH (0.1 mg/ml) and the test compound were added to lymph node cells (2.5×10^6 cells/ml) and the mixture was incubated at 37° C. under 5% CO2 for 4 days (Corning 25850, 0.15 ml/well). Then, amount of cytokine produced in the supernatant was measured by ELISA specific to cytokine.
(§5) Amounts of interleukin 4 (IL-4) and interleukin 5 (IL-5) as a typical Th2 type cytokine, and amount of interferon γ (IFN-γ) as a typical Th1 type cytokine were measured.
Amount of IL-4 was measured by ELISA as mentioned below. A rat anti-mouse IL-4 antibody (Pharmingen, San Diego, Calif., Code No. 18031D, 0.5 mg/ml) as a primary antibody was diluted 250 times with hydrogen carbonate buffer, and it was inoculated to the 96-well plate (Falcon 3912, Becton Dickinson and Company, Flanklin Lakes, N.J.) (50μ/well) and each well was coated at 4° C. overnight. Then the plate was blocked with PBS (−) solution (phosphate-buffered saline without calcium chloride and magnesium chloride) containing 3% BSA (200 μl/well). After rinsing the plate three times with PBS (−) solution containing 0.05% polyoxyethylene solbitan monolaurate (Tween 20™, Nacalai Tesque (Kyoto) Code No. 281-51) (PBST), the supernatant of the culture medium was added to the wells (50 μl/well) and incubated at room temperature for 4 hours. Recombinant mouse IL-4 (Pharmingen, Code No. 19231W) was used for preparing a calibration curve.
After rinsing the plate three times with PBST, a rat anti-mouse IL-4 antibody labeled by biotin (Pharmingen, Code No. 18042D, 0.5 mg/ml) as a secondary antibody, which was diluted 500 times with PBS (−) solution containing 0.1% BSA, was poured into wells (100 μl/well). The plate was incubated at room temperature for one hour. The secondary antibody bound to the plate was detected with streptoabidin alkaliphosphatase (Kirkegaad & Perry Lab., Gaithersburg, Md., Code No. 15-30-00) (0.25 μg/ml, 100 μl/well). After incubation of the plate at 37° C. for one hour and rinsing the plate three times with PBST, the coloring was done by adding PNPP substrate (p-nitrophenyl disodium phosphate substrate (Nacalai Tesque) (1 mg/ml, 100 μl/well)). The absorption at 415 nm was measured by a microplate reader (MTP-120 Microplate reader, Corona Electric Co.)
In the same manner as in Test 1, each test compound dissolved in DMSO (Nacalai Tesque (Kyoto) code No. 11J) at a concentration of 100 mM was diluted to final concentration with the medium. Sensitization and preparation of lymph node cells, production of cytokine by stimulation with an antigen and measurement of amounts of cytokines were conducted in the same method as in Test 1.
By measuring inhibition rate of production of IL-4 at various concentrations of each test compound and using a graph relating to the compound concentration and the inhibition rate, 50% inhibition concentration (IC50) on each test compound was calculated.

IFN-γ = experiment: Cytokine production (IFN-γ) from KLH-stimulated mouse lymph node cells, ELISA; conditions: Test 3, 4 days
Experimental: as §1, §2, §3
(§6) Each test compound dissolved in DMSO (Nacalai Tesque (Kyoto) code No. 11J) at a concentration of 100 mM was diluted to final concentration with the medium. […]
as §4, §5
(§7) Amount of IL-4 was measured by ELISA as mentioned below. […]

IL-5 = experiment: Cytokine production (IL-5) from KLH-stimulated mouse lymph node cells, ELISA; conditions: Test 3, 4 days
Experimental: as §1, §2, §3, §6, §4, §5, §7

Row | SMILES | IC50 (IL-4; Test 2, Table 1) [µg/mL] | further results
1 | CCOC(=O)CNc1nc(N)nc2c1CCCC2 [Example 1, Ethyl-2-[(2-amino-5,6,7,8-tetrahydroquinazoline-4-yl)amino]acetate] | 0.6 | 
2 | Nc1nc2c(c(NCC3CCCCC3)n1)CCCC2 [Example 2, N-(2-Amino-5,6,7,8-tetrahydroquinazoline-4-yl)-N-(cyclohexylmethyl)amine] | 0.6 | 
3 | CCOC(=O)C(CC(C)C)Nc1nc(N)nc2c1CCCC2 (stereo not drawn) [Example 3, Ethyl-2-[(2-amino-5,6,7,8-tetrahydroquinazoline-4-yl)amino]-4-methylpentanoate] | 0.5 | 
4 | CCOCCNc1nc(N)nc2c1CCCC2 [Example 4, N-(2-Amino-5,6,7,8-tetrahydroquinazoline-4-yl)-N-(2-ethoxyethyl)amine] | 3 | 
5 | CCCCNc1nc(N)nc2c1CCCC2 [Example 5, N-(2-Amino-5,6,7,8-tetrahydroquinazoline-4-yl)-N-butylamine] | 0.2 | 
6 | CCCCCCNc1nc(N)nc2c1CCCC2 [Example 6, N-(2-Amino-5,6,7,8-tetrahydroquinazoline-4-yl)-N-hexylamine] | 1 | 
7 | CCOC(=O)C(C)Nc1nc(N)nc2c1CCCC2 (stereo not drawn) [Example 7, Ethyl 2-[(2-amino-5,6,7,8-tetrahydroquinazoline-4-yl)amino]propanoate] | 0.5 | 
8 | CCOC(=O)C(CO)Nc1nc(N)nc2c1CCCC2 (stereo not drawn) [Example 8, Ethyl 2-[(2-amino-5,6,7,8-tetrahydroquinazoline-4-yl)amino]-3-hydroxypropanoate] | 1 | 
9 | CCCCC(Nc1nc(N)nc2c1CCCC2)C(=O)OC (stereo not drawn) [Example 9, Methyl 2-[(2-amino-5,6,7,8-tetrahydroquinazoline-4-yl)amino)hexanoate] | 1 | 
10 | CCCCC(CO)Nc1nc(N)nc2c1CCCC2 (stereo not drawn) [Example 10, 2-[(2-Amino-5,6,7,8-tetrahydroquinazoline-4-yl)amino]hexane-1-ol] | 0.1 | 
11 | CCCC(O)CNc1nc(N)nc2c1CCCC2 (stereo not drawn) [Example 11, 1-[(2-Amino-5,6,7,8-tetrahydroquinazoline-4-yl)amino]pentane-2-ol] | 0.1 | 
12 | CCCC(=O)CNc1nc(N)nc2c1CCCC2 [Example 12, 1-[(2-Amino-5,6,7,8-tetrahydroquinazoline-4-yl)amino]pentane-2-one] | 1 | 
13 | Nc1nc2c(c(NCC3CCCO3)n1)CCCC2 (stereo not drawn) [Example 13, N-(2-Amino-5,6,7,8-tetrahydroquinazoline-4-yl)-N-(tetrahydorofuran-2-ylmethyl)amine] | 10 | 
14 | CCCCCNc1nc(N)nc(C)c1CCCC [Example 14, N-(2-Amino-5-butyl-6-methylpyrimidine-4-yl)-N-pentylamine] | 0.1 | 
15 | CCCCCCc1c(C)nc(N)nc1NCCCCC [Example 15, N-(2-Amino-5-hexyl-6-methylpyrimidine-4-yl)-N-pentylamine] | 0.4 | 
16 | CCCCCNc1nc(N)nc2c1COCC2 [Example 16, N-(2-Amino-7,8-dihydro-5H-pyrano[4,3-d]pyrimidine-4-yl)-N-pentylamine] | 3 | 
17 | CCCCCNc1nc(N)nc(CCCC)c1C [Example 17, N-(2-Amino-6-butyl-5-methylpyrimidine-4-yl)-N-pentylamine] | 5 | 
18 | CCCCCNc1nc(N)nc(C)c1C [Example 18, N-(2-Amino-5,6-dimethylpyrimidine-4-yl)-N-pentylamine] | 0.3 | 
19 | CCCCCNc1nc(N)nc2c1CCCC2 [Example 19, N-(2-Amino-5,6,7,8-tetrahydroquinazoline-4-yl)-N-pentylamine] | 0.2 | 
20 | CCCCCNc1nc(N)nc2c1CCC2 [Example 20, N-(2-Amino-6,7-dihydro-5H-cyclopenta[d]pyrimidine-4-yl)-N-pentylamine] | 0.3 | 
21 | CCCCC(Nc1nc(N)nc2c1CCCC2)C(N)=O (stereo not drawn) [Example 21] | 0.5 | 
22 | CCCCCNc1nc(N)nc(C)c1CCOC [Example 22, N-(2-Amino-5-(2-methoxyethyl)-6-methylpyrimidine-4-yl)-N-pentylamine] | 0.5 | 
23 | CCCCCNc1nc(N)nc(C)c1CCC#N [Example 23, 3-[2-Amino-4-methyl-6-(pentylamino)pyrimidine-5-yl]propanenitrile] | 0.5 | 
24 | CCCCCNc1nc(N)nc(C)c1CC [Example 24, N-[2-Amino-5-ethyl-6-methylpyrimidine-4-yl)-N-pentylamine] | 0.2 | 
25 | CCCCc1c(C)nc(N)nc1NCC(O)CCC (stereo not drawn) [Example 25, 1-[(2-Amino-5-butyl-6-methylpyrimidine-4-yl)amino]pentane-2-ol] | 0.1 | 
26 | CCCCCNc1nc(N)nc(C)c1Cc1ccccc1 [Example 26, N-(2-Amino-5-benzyl-6-methylpyrimidine-4-yl)-N-pentylamine] |  | production of IFN-γ (IFN-γ): enhance the production; IC50 (IL-4; Test 4, Table 2): 0.5 µg/mL; production of IL-4 (IL-4): inhibit the production; production of IL-5 (IL-5): inhibit the production
27 | CCCCCNc1nc(N)ncc1Cc1ccccc1 [Example 27, N-(2-Amino-5-benzylpyrimidine-4-yl)-N-pentylamine] |  | production of IFN-γ (IFN-γ): enhance the production; IC50 (IL-4; Test 4, Table 2): 1 µg/mL; production of IL-4 (IL-4): inhibit the production; production of IL-5 (IL-5): inhibit the production
